Test results: patent publication US12410171B2, “Tropomyosin receptor kinase (TRK) degradation compounds and methods of use” (Cullgen (Shanghai), Inc., priority 2020, dated 2025)
Where two headings read alike, the source gives them in different places.

Target: T1, TPM3-TRKA fusion protein (Homo sapiens, UniProt P04629)
T1 construct: The resulted chimeric proteins always retain the kinase domain of TRK proteins; TPM3 (fusion partner, N-terminal part of tropomyosin alpha-3, P06753); endogenous in cells; host or cells: KM12 colon cancer cells; the other entry of the earlier key: TPM3 (P06753, Tropomyosin alpha-3 chain)
Experiment: TPM3-TRKA fusion protein levels in KM12 cells (Western blot)
Format: cell-based
Settings: read-out: Degradation (at 10 nM)
In short: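 KM12 colon cancer cells were treated with DMSO or compounds at 0.1–100 nM, 0.4–30 nM or other stated concentrations for 4, 8–16 or 16 h. RIPA lysates were BCA-normalized and resolved by SDS-PAGE. TPM3-TRKA was detected by chemiluminescent Western blot, with bands quantified by densitometry.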

[1] = 16 h, TPM3-TRKA degradation in KM12 cells at 10 nM compound, category of percentage degradation

T1 sequence (P04629 with tags, fused parts or gaps): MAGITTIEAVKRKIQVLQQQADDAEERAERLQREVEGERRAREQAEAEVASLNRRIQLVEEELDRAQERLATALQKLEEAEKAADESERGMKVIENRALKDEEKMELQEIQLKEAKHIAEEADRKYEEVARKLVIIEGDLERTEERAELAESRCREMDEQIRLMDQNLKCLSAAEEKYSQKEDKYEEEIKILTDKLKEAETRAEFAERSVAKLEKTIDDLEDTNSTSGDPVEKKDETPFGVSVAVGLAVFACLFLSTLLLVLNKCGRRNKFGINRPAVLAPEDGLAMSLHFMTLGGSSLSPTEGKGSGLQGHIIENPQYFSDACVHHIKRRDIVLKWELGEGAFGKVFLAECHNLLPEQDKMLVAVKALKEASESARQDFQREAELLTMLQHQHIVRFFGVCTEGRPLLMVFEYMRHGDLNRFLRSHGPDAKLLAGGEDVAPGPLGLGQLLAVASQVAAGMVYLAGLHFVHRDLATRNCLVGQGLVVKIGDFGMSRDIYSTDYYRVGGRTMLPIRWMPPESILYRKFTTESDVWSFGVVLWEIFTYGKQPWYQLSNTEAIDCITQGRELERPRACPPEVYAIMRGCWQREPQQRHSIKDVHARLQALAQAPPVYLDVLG

percent degradation of TPM3-TRKA protein at 0.01 µM [1] | Compound | percent degradation of TPM3-TRKA protein at 0.01 µM (KM12, 16 h)
> 80% | O=C1CCC(N2C(=O)c3ccc(NCCCN4CCN(c5cccc(-c6cnc7ccc(N8CCC[C@@H]8c8cccc(F)c8)nn67)n5)CC4)cc3C2=O)C(=O)N1 (stereo partly drawn) [TR-171, 2˜ (2,6-Dioxopiperidin-3-yl)-5-((3-(4-(6-(6-((R)-2-(3-fluorophenyl)pyrrolidin-1-yl)imidazo[1,2-b]pyridazin-3-yl)pyridin-2-yl)piperazin-1-yl)propyl)amino) isoindoline-1,3-dione] | –
50 to 80% | Cc1ncsc1-c1ccc(CNC(=O)[C@@H]2C[C@@H](O)CN2C(=O)[C@@H](NC(=O)CCCCCCC(=O)N2CCN(c3cccc(-c4cnc5ccc(N6CCC[C@@H]6c6cccc(F)c6)nn45)n3)CC2)C(C)(C)C)cc1 [CPD-029, (25,4R)-1-((S)-2-(8-(4-(6-(6-((R)-2-(3-Fluorophenyl)pyrrolidin-1-yl)imidazo[1,2-b]pyridazin-3-yl)pyridin-2-yl)piperazin-1-yl)-8-oxooctanamido)-3,3-dimethylbutanoyl)-4-hydroxy-N-(4-(4-methylthiazol-5-yl)benzyl)pyrrolidine-2-carboxamide] | –
– | Cn1c(=O)n(C2CCC(=O)NC2=O)c2cccc(OCCCN3CCN(c4cccc(-c5cnc6ccc(N7CCC[C@@H]7c7cccc(F)c7)nn56)n4)CC3)c21 (stereo partly shown) [TR-245] | < 50%
> 80% | O=C1CCC(N2C(=O)c3cccc(NCCCCCCC(=O)N4CCN(c5ccc(C(=O)Nc6n[nH]c7ccc(Cc8cc(F)cc(F)c8)cc67)c(NC6CCOCC6)c5)CC4)c3C2=O)C(=O)N1 (stereo not drawn) [CPD-049, N—(S-(3,5-Difluorobenzyl)-1H-indazol-3-yl)-4-(4-(7-((2-(2,6-dioxopiperidin-3-yl)-1,3-dioxoisoindolin-4-yl)amino)heptanoyl)piperazin-1-yl)-2-((tetrahydro-2H-pyran-4-yl)amino)benzamide] | –
> 80% | O=C(CN1CCN(c2ccc(C(=O)Nc3n[nH]c4ccc(Cc5cc(F)cc(F)c5)cc34)c(NC3CCOCC3)c2)CC1)NCCNc1cccc2c1C(=O)N(C1CCC(=O)NC1=O)C2=O (stereo not shown) [CPD-062, N-(5-(3,5-Difluorobenzyl)-1H-indazol-3-yl)-4-(4-(2-((2-((2-(2,6-dioxopiperidin-3-yl)-1,3-dioxoisoindolin-4-yl)amino)ethyl)amino)-2-oxoethyl)piperazin-1-yl)-2-((tetrahydro-2H-pyran-4-yl)amino)benzamide] | –
> 80% | O=C(CN1CCN(c2cccc(-c3cnc4ccc(N5CCC[C@@H]5c5cccc(F)c5)nn34)n2)CC1)NCCCCCCNc1ccc2c(c1)C(=O)N(C1CCC(=O)NC1=O)C2=O (stereo partly drawn) [TR-128, N-(6-((2-(2,6-dioxopiperidin-3-yl)-1,3-dioxoisoindolin-5-yl)amino)hexyl)-2-(4-(6-(6-((R)-2-(3-fluorophenyl)pyrrolidin-1-yl)imidazo[1,2-b]pyridazin-3-yl)pyridin-2-yl)piperazin-1-yl)acetamide] | –
< 50% | COc1ccc(CN(CCN2CCN(c3cccc(-c4cnc5ccc(N6CCC[C@@H]6c6cccc(F)c6)nn45)n3)CC2)c2ccc3c(c2)C(=O)N(C2CCC(=O)NC2=O)C3=O)cc1 (stereo partly drawn) [TR-214, 2-(2,6-Dioxo-3-piperidyl)-5-(2-(4-(6-(6-((2R)-2-(3-fluorophenyl)pyrrolidin-1-yl)imidazo[1,2-b]pyridazin-3-yl)-2-pyridyl)piperazin-1-yl)ethyl-((4-methoxyphenyl)methyl)amino) isoindoline-1,3-dione] | –
> 80% | Cn1c(=O)n(C2CCC(=O)NC2=O)c2cccc(NCCN3CCN(c4cccc(-c5cnc6ccc(N7CCC[C@@H]7c7cccc(F)c7)nn56)n4)CC3)c21 (stereo partly drawn) [TR-216, 3-[4-[2-[4-[6-[6-[(2R)-2-(3-Fluorophenyl)pyrrolidin-1-yl]imidazo[1,2-b]pyridazin-3-yl]-2-pyridyl]piperazin-1-yl]ethylamino]-3-methyl-2-oxo-benzimidazol-1-yl]piperidine-2,6-dione] | –
> 80% | O=C1CCC(N2C(=O)c3cccc(NCCOCCOCCOCCOCCC(=O)N4CCN(c5cccc(-c6cnc7ccc(N8CCC[C@@H]8c8cccc(F)c8)nn67)n5)CC4)c3C2=O)C(=O)N1 (stereo partly drawn) [CPD-021, 2-(2,6-Dioxopiperidin-3-yl)-4-((15-(4-(6-(6-((R)-2-(3-fluorophenyl)pyrrolidin-1-yl)imidazo[1,2-b]pyridazin-3-yl)pyridin-2-yl)piperazin-1-yl)-15-oxo-3,6,9,12-tetraoxapentadecyl)amino) isoindoline-1,3-dione] | –
> 80% | O=C1CCC(N2C(=O)c3ccc(NCCOCCC(=O)N4CCN(c5ccc(C(=O)Nc6n[nH]c7ccc(Cc8cc(F)cc(F)c8)cc67)c(NC6CCOCC6)c5)CC4)cc3C2=O)C(=O)N1 (stereo not shown) [TR-143] | –
> 80% | O=C(CN1CCN(c2ccc(C(=O)Nc3n[nH]c4ccc(Cc5cc(F)cc(F)c5)cc34)c(NC3CCOCC3)c2)CC1)NCCOCCOCCNc1cccc2c1C(=O)N(C1CCC(=O)NC1=O)C2=O (stereo not shown) [TR-153, N-(5-(3,5-Difluorobenzyl)-1H-indazol-3-yl)-4-(4-(2-((2-(2-(2-((2-(2,6-dioxopiperidin-3-yl)-1,3-dioxoisoindolin-4-yl)amino)ethoxy)ethoxy)ethyl)amino)-2-oxoethyl)piperazin-1-yl)-2-((tetrahydro-2H-pyran-4-yl)amino)benzamide] | –
> 80% | O=C(CN1CCN(c2cccc(-c3cnc4ccc(N5CCC[C@@H]5c5cccc(F)c5)nn34)n2)CC1)NCCOCCOCCNc1ccc2c(c1)C(=O)N(C1CCC(=O)NC1=O)C2=O (stereo partly drawn) [TR-134, N-(2-(2-(2-((2-(2,6-dioxopiperidin-3-yl)-1,3-dioxoisoindolin-5-yl)amino)ethoxy)ethoxy)ethyl)-2-(4-(6-(6-((R)-2-(3-fluorophenyl)pyrrolidin-1-yl)imidazo[1,2-b]pyridazin-3-yl)pyridin-2-yl)piperazin-1-yl)acetamide] | –
> 80% | O=C1CCC(N2C(=O)c3ccc(NCCCCC(=O)N4CCN(c5ccc(C(=O)Nc6n[nH]c7ccc(Cc8cc(F)cc(F)c8)cc67)c(NC6CCOCC6)c5)CC4)cc3C2=O)C(=O)N1 (stereo not shown) [TR-142, N-(5-(3,5-Difluorobenzyl)-1H-indazol-3-yl)-4-(4-(5-((2-(2,6-dioxopiperidin-3-yl)-1,3-dioxoisoindolin-5-yl)amino)pentanoyl)piperazin-1-yl)-2-((tetrahydro-2H-pyran-4-yl)amino)benzamide] | –
< 50% | Cc1ncsc1-c1ccc(CNC(=O)[C@@H]2C[C@@H](O)CN2C(=O)[C@@H](NC(=O)CCOCCOCCOCCOCCC(=O)N2CCN(c3ccc(C(=O)Nc4n[nH]c5ccc(Cc6cc(F)cc(F)c6)cc45)c(NC4CCOCC4)c3)CC2)C(C)(C)C)cc1 [CPD-041, (2S,4R)-1-((S)-2-(tert-butyl)-19-(4-(4-((5-(3,5-Difluorobenzyl)-1H-indazol-3-yl)carbamoyl)-3-((tetrahydro-2H-pyran-4-yl)amino)phenyl)piperazin-1-yl)-4,19-dioxo-7,10,13,16-tetraoxa-3-azanonadecanoyl)-4-hydroxy-N-(4-(4-methylthiazol-5-yl)benzyl)pyrrolidine-2-carboxamide] | –
> 80% | O=C(CN1CCN(c2cccc(-c3cnc4ccc(N5CCC[C@@H]5c5cccc(F)c5)nn34)n2)CC1)NCCOCCOCCOCCOCCOCCNc1ccc2c(c1)C(=O)N(C1CCC(=O)NC1=O)C2=O (stereo partly drawn) [TR-132, N-(17-((2-(2,6-dioxopiperidin-3-yl)-1,3-dioxoisoindolin-5-yl)amino)-3,6,9,12,15-pentaoxaheptadecyl)-2-(4-(6-(6-((R)-2-(3-fluorophenyl)pyrrolidin-1-yl)imidazo[1,2-b]pyridazin-3-yl)pyridin-2-yl)piperazin-1-yl)acetamide] | –
> 80% | O=C1CCC(N2C(=O)c3cccc(NCCCCCC(=O)N4CCN(c5ccc(C(=O)Nc6n[nH]c7ccc(Cc8cc(F)cc(F)c8)cc67)c(NC6CCOCC6)c5)CC4)c3C2=O)C(=O)N1 (stereo not shown) [CPD-056, N-(5-(3,5-Difluorobenzyl)-1H-indazol-3-yl)-4-(4-(6-((2-(2,6-dioxopiperidin-3-yl)-1,3-dioxoisoindolin-4-yl)amino)hexanoyl)piperazin-1-yl)-2-((tetrahydro-2H-pyran-4-yl)amino)benzamide] | –
> 80% | Cn1c(=O)n(C2CCC(=O)NC2=O)c2ccc(NCCN3CCN(c4cccc(-c5cnc6ccc(N7CCC[C@@H]7c7cccc(F)c7)nn56)n4)CC3)cc21 (stereo partly drawn) [TR-220, 3-(5-((2-(4-(6-(6-((R)-2-(3-Fluorophenyl)pyrrolidin-1-yl)imidazo[1,2-b]pyridazin-3-yl)pyridin-2-yl)piperazin-1-yl)ethyl)amino)-3-methyl-2-oxo-2,3-dihydro-1H-benzo[d]imidazol-1-yl)piperidine-2,6-dione] | –
> 80% | O=C1CCC(N2C(=O)c3ccc(NCCOCCOCCOCCC(=O)N4CCN(c5ccc(C(=O)Nc6n[nH]c7ccc(Cc8cc(F)cc(F)c8)cc67)c(NC6CCOCC6)c5)CC4)cc3C2=O)C(=O)N1 (stereo not shown) [TR-146, N-(5-(3,5-Difluorobenzyl)-1H-indazol-3-yl)-4-(4-(3-(2-(2-(2-((2-(2,6-dioxopiperidin-3-yl)-1,3-dioxoisoindolin-5-yl)amino)ethoxy)ethoxy)ethoxy)propanoyl)piperazin-1-yl)-2-((tetrahydro-2/-pyran-4-yl)amino)benzamide] | –
– | O=C1CCC(N2C(=O)c3ccc(N4CC(N5CCN(c6cccc(-c7cnc8ccc(N9CCC[C@@H]9c9cccc(F)c9)nn78)n6)CC5)C4)cc3C2=O)C(=O)N1 (stereo partly drawn) [TR-184, 2-(2,6-dioxopiperidin-3-yl)-5-(3-(4-(6-(6-((R)-2-(3-fluorophenyl)pyrrolidin-1-yl)imidazo[1,2-b]pyridazin-3-yl)pyridin-2-yl)piperazin-1-yl)azetidin-1-yl)isoindoline-1,3-dione] | > 80%
